Experimental data reported in patent US20040186089A1 (priority 2001, published 2004).
Converted amounts (≈) assume the structure as drawn. “And” between values parts separate entries of the source, which are not always exact repeats. Identical values can stand only once.

Experiments:
[1] = test system: Bacillus anthracis ATCC 14578; format: cell-based; settings: for MIC: unit assumed
Bacillus anthracis [2] = settings: cited from earlier work
Bacillus thuringiensis [3] = settings: cited from earlier work
Bacillus cereus = format: cell-based
Bacillus thuringiensis [4] = format: cell-based
Bacillus anthracis [5] = settings: in vivo; cited from earlier work

Compound | MIC [1] | susceptibility of Bacillus anthracis (Bacillus anthracis [2]) | also measured
Penicillin | 0.047 µg/mL | susceptible | resistance of Bacillus thuringiensis (Bacillus thuringiensis [3]): resistant
C[C@@H](O)[C@H]1C(=O)N2C(C(=O)O)=C(SCCN=CN)C[C@H]12 [Imipenem, [5R-[5α,6α(R*)]]-6-(1-hydroxyethyl)-3-[[2-[(iminomethyl)amino]ethyl]thio]-7-oxo-1-azabicyclo[3.2.0]hept-2-ene-2-carboxylic acid monohydrate] | 0.047 µg/mL | – | –
CCn1cc(C(=O)O)c(=O)c2cc(F)c(N3CCNCC3)cc21 [Norfloxacin] | – | – | Disk Diffusion zone (Bacillus cereus): 22 mm and 23 mm and 21 mm and 25 mm; Disk Diffusion zone (Bacillus thuringiensis [4]): 27 mm and 24 mm
CC1(C)S[C@@H]2[C@H](NC(=O)[C@H](N)c3ccccc3)C(=O)N2[C@H]1C(=O)O [ampicillin] | – | – | resistance of Bacillus thuringiensis (Bacillus thuringiensis [3]): resistant
CN(C)[C@@H]1C(O)=C(C(N)=O)C(=O)[C@@]2(O)C(O)=C3C(=O)c4c(O)cccc4[C@@](C)(O)[C@H]3C[C@@H]12 [Tetracycline] | 0.064 µg/mL (≈ 0.144 µM) | – | –
CC[C@H]1OC(=O)[C@H](C)[C@@H](O[C@H]2C[C@@](C)(OC)[C@@H](O)[C@H](C)O2)[C@H](C)[C@@H](O[C@@H]2O[C@H](C)C[C@H](N(C)C)[C@H]2O)[C@](C)(O)C[C@@H](C)C(=O)[C@H](C)[C@@H](O)[C@]1(C)O [erythromycin] | – | susceptible | –
O=C(O)c1cn(C2CC2)c2cc(N3CCNCC3)c(F)cc2c1=O [Ciprofloxacin] | 0.064 µg/mL (≈ 0.193 µM) | – | resistance of Bacillus thuringiensis (Bacillus thuringiensis [3]): not resistant; response of people (Bacillus anthracis [5]): responded well
O=C(N[C@H](CO)[C@H](O)c1ccc([N+](=O)[O-])cc1)C(Cl)Cl [chloramphenicol] | – | susceptible | –
CO[C@@]1(NC(=O)Cc2cccs2)C(=O)N2C(C(=O)O)=C(COC(N)=O)CS[C@@H]21 [Cefoxitin] | 6 µg/mL (≈ 14 µM) | – | –
C[C@@H](O)[C@H]1C(=O)N2C(C(=O)O)=C(S[C@@H]3CN[C@H](C(=O)Nc4cccc(C(=O)O)c4)C3)[C@H](C)[C@H]12 [Ertapenem, (1R,5S,6S,8R,2′S,4′S)-2-(2-(3-carboxyphenylcarbamoyl)pyrrolidin-4-ylthio)-6-(1-hydroxyethyl)-1-methylcarbapenem-3-carboxylic acid] | 0.032 µg/mL (≈ 0.0673 µM) | – | susceptibility of Bacillus anthracis [1]: susceptible
gentamicin | – | susceptible | –
